Where two headings read alike, the source gives them in different places. Values belong to the compound of their own block, whether it stands above or below them.
Assays:
[1] = Study 1: lenalidomide-digoxin pharmacokinetic interaction, double-blind placebo-controlled crossover in healthy subjects; details: for T max: median (range)
Protocol: Study 1 was designed as a double-blind, placebo-controlled, randomized, 2-period, crossover trial. Subjects were randomized to receive either lenalidomide 10 mg/day for 7 days in Study Period 1 and the matching placebo for 7 days in Study Period 2, or to receive the same two treatments in the reverse order. […] A 10-day washout separated the study periods.
For analysis of lenalidomide in plasma and urine, the assay ranges were 5–1,000 and 100–20,000 ng/mL, respectively, and the details of methods were described previously. […] C [2, 3] H7]-temsirolimus were quantitatively extracted from whole blood sample by protein precipitation extraction.
Non-compartmental pharmacokinetic parameters were estimated from drug concentration–time profiles. Major pharmacokinetic parameters included C max, time to reach C max (T max), terminal-phase half-life (t 1/2), AUC from time zero to the last measurable concentration (AUCt), AUC from time zero to infinity (AUC∞), cumulative urinary excretion as a percentage of administered dose (fe), and renal clearance (CLR).
An analysis of variance (ANOVA) was performed on the natural log-transformed pharmacokinetic parameters to estimate the percentage ratio of geometric means between treatments, and the 90 % confidence interval (CI) for key pharmacokinetic parameters.

[2] = Study 2, Part 1: lenalidomide-quinidine pharmacokinetic interaction, open-label crossover in healthy subjects; format: in vivo, human; details: for fe (cumulative urinary excretion as a percentage of administered dose): urine
Protocol: Study 2, Part 1 was designed as an open-label, fixed-sequence, 2-period, crossover trial. In Period 1, subjects received a single oral dose of 25 mg lenalidomide. […] Study periods were separated by a washout of 7–10 days. In both periods, serial blood samples were collected, and urine samples were pooled over specified intervals for up to 48-h post-lenalidomide dosing to determine plasma and urine lenalidomide concentrations.

[3] = Study 2, Part 2: lenalidomide-temsirolimus pharmacokinetic interaction, open-label crossover in healthy subjects; format: in vivo, human; details: for AUC(0-inf) / AUC(0-t) / Cmax / half-life / CL renal / fe (cumulative urinary excretion as a percentage of administered dose): geometric mean (geometric CV %); for Tmax: median (range); for CL renal: plasma and urine, read-out: CLR (renal clearance); for fe (cumulative urinary excretion as a percentage of administered dose): urine
Protocol: Study 2, Part 2 was designed as an open-label, fixed-sequence, 3-period, crossover trial. In Period 1, subjects received a single oral dose of 25 mg lenalidomide; in Period 2, subjects received a single dose of temsirolimus 25 mg via a 30-min intravenous (IV) infusion; and in Period 3, subjects received both a single 25 mg oral dose of lenalidomide and a single 25 mg IV dose of temsirolimus. Pre-treatment with IV diphenhydramine (25 mg) was administered 30 min prior to start of each temsirolimus infusion. There was a 7–10 day washout between Study Periods 1 and 2, and a minimum 14-day washout between Study Periods 2 and 3.

[4] = Safety evaluation in the phase I studies (AEs, laboratory values, ECG, vital signs); format: in vivo, human; details: lenalidomide given with digoxin, quinidine or temsirolimus vs lenalidomide alone or with placebo
Protocol: Safety was evaluated throughout each study by monitoring AEs, physical examinations, vital signs, clinical laboratory values, and 12-lead electrocardiogram results and was summarized using descriptive statistics.

[5] = system: human P-gp; parameters: method as in ref 14, 15 = [14]; 14. Kumar GN, Surapaneni S, Lau H, Laskin O, Fox L (2008) Interaction of lenalidomide with human drug transporters in vitro [abstract 381]. ISSX Online Abstracts Supplement 3 (No. 3). Presented at the || [15]; PMID 21825263; doi:10.1200/JCO.2010.32.4962; 15. Hofmeister CC Yang X Pichiorri F Chen P Rozewski DM Johnson AJ Lee S Liu Z Garr CL Hade EM Ji J Schaaf LJ Benson DM Jr Kraut EH Hicks WJ Chan KK Chen CS Farag SS Grever MR Byrd JC Phelps MA Phase; details: monolayers of LLC-PK1 and MDCKII cell lines expressing human P-gp; cited from earlier work
[6] = system: P-gp; details: up to a concentration of 300 μM, P-gp expressing LLC-PK1 cell line; cited from earlier work
[7] = cited from earlier work
[8] = parameters: method as in PMID 22213235; details: cited from earlier work
[9] = parameters: method as in ref 15 = [15]; PMID 21825263; doi:10.1200/JCO.2010.32.4962; 15. Hofmeister CC Yang X Pichiorri F Chen P Rozewski DM Johnson AJ Lee S Liu Z Garr CL Hade EM Ji J Schaaf LJ Benson DM Jr Kraut EH Hicks WJ Chan KK Chen CS Farag SS Grever MR Byrd JC Phelps MA Phase; details: MM patients, cited from earlier work
[10] = system: CYP3A4; details: cited from earlier work
[11] = system: human P-gp transporters; details: read-out: Ki for inhibiting human P-gp transporters in vitro; cited from earlier work
[12] = human, oral, lenalidomide 25 mg alone (n = 14), plasma, geometric mean (geometric CV %)
[13] = human, oral, lenalidomide 25 mg alone (n = 17), plasma
[14] = human, lenalidomide 25 mg + temsirolimus 25 mg IV (n = 11), plasma
[15] = human, temsirolimus 25 mg IV + lenalidomide 25 mg (n = 11), whole blood
[16] = human, temsirolimus 25 mg IV alone (n = 14), whole blood

T max ([1]; digoxin 0.5 mg + lenalidomide 10 mg/day (n = 17), plasma): 1.0 (1–3) h | T max ([1]; digoxin 0.5 mg alone (with placebo) (n = 17), plasma): 1.0 (1–3) h | AUC(0-inf) ([1]; human, plasma, oral, 0.5 mg): 26.3 ng·h/mL | AUC(0-t) ([1]; human, plasma, oral, 0.5 mg): 19.1 ng·h/mL | Cmax ([1]; human, plasma, oral, 0.5 mg): 1.69 ng/mL | half-life ([1]; human, plasma, oral, 0.5 mg): 32.3 h
Structure (SMILES): C[C@H]1O[C@@H](O[C@H]2[C@@H](O)C[C@H](O[C@H]3[C@@H](O)C[C@H](O[C@H]4CC[C@@]5(C)[C@H](CC[C@@H]6[C@@H]5C[C@@H](O)[C@]5(C)[C@@H](C7=CC(=O)OC7)CC[C@]65O)C4)O[C@@H]3C)O[C@@H]2C)C[C@H](O)[C@@H]1O [Digoxin]

Median time of observed Cmax of lenalidomide ([1]; human, in vivo): 0.5 to 1 h | AUC(0-inf) ([1]; human, in vivo, 10 mg): 475 ng·h/mL | AUC(0-t) ([1]; human, in vivo, 10 mg): 396 ng·h/mL | Cmax ([1]; human, in vivo, 10 mg): 119 ng/mL | Tmax ([1]; human, in vivo, 10 mg): 1 h | half-life ([1]; human, in vivo, 10 mg): 2.4 h | AUC(0-inf) [2, 12]: 1360 ng·h/mL | AUC(0-t) [2, 12]: 1290 ng·h/mL | half-life [2, 12]: 2.81 h | Cmax ([2]; human, oral, lenalidomide 25 mg alone (n = 14), plasma, geometric mean (geometric CV %), read-out: Cmax): 367 ng/mL | Tmax ([2]; human, oral, lenalidomide 25 mg alone (n = 14), plasma, median (range)): 1 h | CL renal ([2]; human, plasma and urine, oral, lenalidomide 25 mg alone (n = 14), geometric mean (geometric CV %), read-out: CLR (renal clearance)): 227 mL/min | fe (cumulative urinary excretion as a percentage of administered dose) ([2]; lenalidomide 25 mg + quinidine (n = 14), geometric mean (geometric CV %)): 70.2 (6.6) % dose | fe (cumulative urinary excretion as a percentage of administered dose) ([2]; lenalidomide 25 mg alone (n = 14), geometric mean (geometric CV %)): 74.2 (11.4) % dose | Time by which urinary excretion of unchanged lenalidomide was nearly complete ([2]; post-dose, under all treatment conditions (alone, + quinidine, + temsirolimus)): ≤ 12 h | AUC(0-inf) [3, 13]: 1350 ng·h/mL | AUC(0-t) [3, 13]: 1280 ng·h/mL | Cmax [3, 13]: 364 ng/mL | half-life [3, 13]: 2.81 h | Tmax [3, 13]: 0.5 h | CL renal ([3]; human, oral, lenalidomide 25 mg alone (n = 17)): 251 mL/min | CL renal ([3]; human, lenalidomide 25 mg + temsirolimus 25 mg IV (n = 11)): 229 mL/min | AUC(0-inf) [3, 14]: 1440 ng·h/mL | AUC(0-t) [3, 14]: 1370 ng·h/mL | Cmax [3, 14]: 361 ng/mL | half-life [3, 14]: 2.69 h | Tmax [3, 14]: 1 h | fe (cumulative urinary excretion as a percentage of administered dose) ([3]; lenalidomide 25 mg + temsirolimus 25 mg IV (n = 11)): 79.6 (8.0) % dose | fe (cumulative urinary excretion as a percentage of administered dose) ([3]; lenalidomide 25 mg alone (n = 17)): 81.0 (10.0) % dose
Structure (SMILES): Nc1cccc2c1CN(C1CCC(=O)NC1=O)C2=O (stereo not shown) [Lenalidomide]
90 % CIs for the ratio of geometric means, lenalidomide alone vs plus an interacting drug, for Cmax and AUC in plasma ([1]; human, in vivo): completely contained within the limits of 80 and 125% | 90 % CIs for the ratio of geometric means, lenalidomide alone vs plus an interacting drug, for renal clearance ([2]; interacting drug quinidine or temsirolimus (Study 2)): completely contained within the limits of 80 and 125% | Number of subjects reporting AEs, or number of AEs reported [4]: no apparent increase | Efflux ratio [5]: approximately 3 | Inhibition of P-gp-dependent transport of digoxin [6]: did not inhibit | Absorption after oral administration [7]: > 90% | Administered dose eliminated by renal excretion of the unchanged drug [7]: Approximately 80% | Bioavailability ([7]; known high bioavailability): > 90% | Lenalidomide AUC with itraconazole relative to other MM patients receiving lenalidomide alone ([8]; MM patient, lenalidomide 10 mg/day + itraconazole 100 mg/day vs lenalidomide 25 mg/day alone): 12 fold | Elimination half-life (t 1/2) ([8]; with itraconazole): 5.5 h | Elimination half-life (t 1/2) ([8]; without itraconazole): 6.7 h | C max and AUC of lenalidomide with increasing doses of temsirolimus ([9]; lenalidomide 25 mg/day, temsirolimus 15–20 mg/day): increase | CYP3A4 substrate, inhibitor or inducer status [10]: not a substrate, inhibitor, or inducer of CYP3A4

Estimated mean C max for unbound quinidine ([2]; assuming 15 % of unbound drug): approximately 1 μM | Cmax ([2]; human, oral, 600 mg twice daily, plasma, Day 4, CV % 24.3): 2350 ng/mL | Mean quinidine trough concentration ([2]; plasma, Days 4–5, quinidine sulfate 600 mg twice daily): 1,705 ng/mL
Structure (SMILES): C=C[C@H]1C[N@@]2CC[C@H]1C[C@@H]2[C@@H](O)c1ccnc2ccc(OC)cc12 [Quinidine]
Ki [11]: 900 nM

AUC(0-inf) [3, 15]: 2710 ng·h/mL | AUC(0-t) [3, 15]: 2570 ng·h/mL | Cmax [3, 15]: 649 ng/mL | half-life [3, 15]: 15.2 h | Tmax [3, 15]: 0.47 h | AUC(0-inf) [3, 16]: 2800 ng·h/mL | AUC(0-t) [3, 16]: 2670 ng·h/mL | Cmax [3, 16]: 586 ng/mL | half-life [3, 16]: 15.3 h | Tmax [3, 16]: 0.47 h
Structure (SMILES): CO[C@H]1C[C@@H]2CC[C@@H](C)[C@@](O)(O2)C(=O)C(=O)N2CCCC[C@H]2C(=O)O[C@H]([C@H](C)C[C@@H]2CC[C@@H](OC(=O)C(C)(CO)CO)[C@H](OC)C2)CC(=O)[C@H](C)/C=C(\C)[C@@H](O)[C@@H](OC)C(=O)[C@H](C)C[C@H](C)/C=C/C=C/C=C/1C [Temsirolimus]
90 % CIs for the ratio of geometric means, temsirolimus alone vs temsirolimus plus lenalidomide, for C max and AUCt ([3]; human, in vivo): completely contained within the limits l of 80 and 125% | C max and AUC of temsirolimus with increasing doses of lenalidomide ([9]; temsirolimus 15 mg/day, lenalidomide 15–25 mg/day): increase
